Measurements: patent publication US20220177841A1, “EX VIVO METHODS FOR PRODUCING A T CELL THERAPEUTIC AND RELATED COMPOSITIONS AND METHODS” (Myst Therapeutics LLC, priority 2019, published 2022)
“Also recorded” adds a separate entry of the source. Peptide text beside a SMILES is read from it. * marks the point of attachment. Cbz = O=C(OCc1ccccc1)*; CH2F = FC*

What was measured:
[1] = system: expanded human T cells from three healthy donors; test: T cell adjuvant high throughput screen, total viable CD3+ cell count; format: cell-based; details: 6 days; for total viable CD3+ cell count compared with DMSO treatment control: 10 μg/mL antibodies, 25 μM Z-VAD-FMK, irrespective of activation status (with or without OKT3)
Experimental: Cells were expanded from PBMC derived from Ficoll gradient separation from three healthy donor's apheresis material. […] Cells were next seeded into gas permeable 100M culture vessels and expanded for 7-14 days to achieve a large bank of T cells, and cryopreserved. […] Half of wells were additionally supplemented with 50 ng/mL OKT3, a human anti-CD3 monoclonal antibody. In total, 15 test adjuvant agents were tested for their impact on cell viability in the presence and absence of anti-CD3 activation (see Table E3). Cells were cultured for 6 days total, including a 50% medium exchange on culture day 3, and monitored for total viable CD3+ cell count.
Total viable CD3+ cell count for cells grown in the absence and presence of OKT3 stimulation are shown in FIGS. 27A-C and FIGS. 28A-C, respectively. The results shown are for the following concentrations of adjuvant: 10 μg/mL for tested antibodies (Tavolixizumab, Oxelumab, Ipilimumab, Tocilizumab, Urelumab, Pembrolizumab, Varlilumab, anti-GITR MK-1248, anto-human FasL); 25 μM for Z-VAD-FMK pan-caspase inhibitor; 250 nM for HSP inhibitor NVP-HSP990; and 1000 IU/mL for cytokine (IL-7, IL-15 or IL-21).

[2] = system: PBMC from two healthy donors; test: Checkpoint modulators and costimulatory agonist antibodies on T cell phenotype, flow cytometry; format: cell-based, human; details: 0.5, 1, 10, or 20 μg/mL; 50 ng/ml OKT3; 48 hours
Experimental: Cells were then seeded into a 24-well gas permeable cell culture plate at a density of 5.0×10^5 cells/cm^2. Cells were activated for 48 hours using 50 ng/ml OKT3, a human anti-CD3 monoclonal antibody, and were additionally treated with agents as described below. Following 48 hours in culture, cells were analyzed for phenotype.
Cells were divided into 6 treatment groups, as follows: Ipilimumab (anti-CTLA4), Pembrolizumab (anti-PD1), Tavolixizumab (anti-TNFRSF4), Urelumab (anti-CD137), and Varlilumab (anti-CD27), as well as a no added agent control. For all test groups, cells in each treatment group were cultured in the presence of the monoclonal antibodies at 0.5, 1, 10, or 20 μg/mL.
None of the tested antibodies appeared to affect the memory differentiation state of the T cells. T cell phenotype was assessed for CD4+and CD8+cells independently via flow cytometry for markers of activation OX40, 41BB, CD107a, and PD1. Results are shown in FIG. 38 (CD3+), FIG. 39 (CD4+) and FIG. 40 (CD8+). Higher concentrations of Varlilumab, an agonist anti-CD27 antibody, promoted 41BB and CD107a expression on CD3+ T cells (FIG. 38B and 38C), CD4+ T cells (FIG. 39B and 39C) and CD8+ T cells (FIGS. 40B and 40C). Urelumab, an agonist CD137 receptor antibody, promoted 41BB expression on CD4 T cells (FIG. 39B) and CD8+ T cells (FIG. 40B). Pembrolizumab, an anti-PD-1 antagonist, decreased PD1 expression on CD4 T cells (FIG. 39D)

[3] = system: PBMC from three healthy donors; test: T cell expansion with Fas ligand or caspase inhibition, anti-CD3 stimulation; format: cell-based, human; details: OKT3 activation, caspase inhibitor 2 μM present continuously, replenished each media exchange
Experimental: (§1) Apoptotic inhibitors directed against Fas- and caspase-mediated pathways were assessed to determine effects on tumor reactive T cells during manufacturing. The studies were carried out in healthy donors, and thus, stimulation of the T cells were carried out with anti-CD3 (OKT3) or anti-CD3/anti-CD28 stimulation in order to mimic conditions present in the tumor microenvironment (TME). Constant activation signals present in the tumor microenvironment, as can be stimulated by anti-CD3 or anti-CD3/anti-CD28 activation can be detrimental to T cell growth. Cellular viability and projected cell numbers were used to compare the impact of modulation of apoptotic pathways in both a transient and a continuous activation assay, the latter of which more closely recapitulates the tumor microenvironment.
Immune Cell Serum Replacement (ThermoFisher) at 5%, and a final concentration of 2.0 mM of a L-alanyl-L-glutamine dipeptide form of glutamine (GlutaMAX Supplement; Thermofisher). Cells were then seeded into a 24-well gas permeable cell culture plate at a density of 2.14×10^5 cells/mL (7.5×10^5 cells/cm^2). […]
Cultures were maintained for at least 13 days with a 50% media exchange every other day beginning on culture day 2. Cell counts and viability were monitored every other day. […]

[4] = system: PBMC from two healthy donors; test: T cell expansion with Fas ligand or caspase inhibition, anti-CD3/anti-CD28 stimulation (transient or continuous activation); format: cell-based, human; details: 2 μM
Experimental: as §1
Cells were then seeded into a 24-well gas permeable cell culture plate at a density of 1.5×10^5 cells/mL (5.0×10^5cells/cm^2).
Culture wells were assigned to one of two treatment groups, transient or continuous activation. For transient activation, anti-CD3/anti-CD28 paramagnetic beads (Dyanbeads™) were added to the culture media at a ratio of 1 bead per cell starting on culture day 0, and then were removed during media exchange on day 2. […]
Cell counts and viability were monitored every other day. […]

[5] = system: CRC tumor fragment and SCS cultures; test: Caspase inhibition in tumor processing, fragment or SCS cultures; format: cell-based, human
Experimental: Half of cultures contained media additionally supplemented with 2 μM of pan-caspase inhibitor Z-VAD-FMK which was replenished at each media exchange. Cultures were incubated at about 37° C. for a minimum of 18 days with a 50% medium exchange occurring every 2-3 days following culture day 5. Cell counts were performed on day 5 and at each medium exchange using the NC-200 Automated Cell Counter (ChemoMetec).

[6] = system: cells processed from melanoma tumor fragments; test: Anti-CD3 stimulation on expansion of tumor-derived cells; format: cell-based, human
Experimental: Cells processed from melanoma tumor fragments as described in Examples 1 and 2, were cultured in the presence or absence of 50 ng/mL OKT3, a human anti-CD3 monoclonal antibody. Cell cultures were carried out to between 14 and 31 days in either a conventional 6-well plate or a gas permeable culture plate with RPMI or OpTmizer media. […] About 50% of cellular media was exchanged every other day beginning on the 5th day of culture as described previously. Cells were then counted using the NC-200 Automated Cell Counter (Chemometec).

[7] = system: T-cells from three healthy donors; test: Post-stimulation CD4+ and CD8+ activation markers, flow cytometry; format: cell-based, human; details: 50 ng/mL OKT3, compared to culture in the absence of OKT3
Experimental: Specific markers of activation on the CD4+ and CD8+ cell populations were measured using flow cytometry over a time course of 3-48 hours. Specifically, the following markers were assessed: CD38 and CD39 (FIG. 12A and FIG. 13A), CD134 and CD137 (FIG. 12B and FIG. 13B), and CD69 and CD90 (FIG. 12C and FIG. 13C).

[8] = presence versus absence of 50 ng/mL OKT3, 14 to 31 days

Compound: Pembrolizumab: anti-PD1 antibody
- total viable CD3+ cell count compared with DMSO treatment control [1]: consistently higher viable cell counts than the DMSO treatment control
- PD1 expression on CD4 T cells [2]: decreased

Compound: Oxelumab: anti-OX40L antibody
- total viable CD3+ cell count compared with DMSO treatment control [1]: consistently higher viable cell counts than the DMSO treatment control

Compound: COC(=O)C[C@H](NC(=O)[C@H](C)NC(=O)[C@@H](NC(=O)OCc1ccccc1)C(C)C)C(=O)CF [Z-VAD-FMK, carbobenzoxy-valyl-alanyl-aspartyl-[O-methyl]-fluoromethylketone] (Cbz-Val-Ala-Asp(OMe)-CH2F)
- total viable CD3+ cell count compared with DMSO treatment control [1]: consistently higher viable cell counts than the DMSO treatment control
- cell growth (total cell number) [3]: greatest cell growth across donors
- cell growth (total cell number) ([3]; listed as caspase inhibition): superior growth
- total viable cell number and viability versus other conditions ([4]; caspase inhibitor continuously): outperformed the other conditions
- total viable cell number and viability versus other conditions ([4]; caspase inhibitor transiently (day 0 only)): outperformed the other conditions
- outgrowth of T cells ([5]; SCS conditions): outgrowth of T cells was not observed
- cell viability ([5]; SCS culture, 2 μM replenished at each media exchange): similarly high
- cell viability ([5]; tumor fragment-derived culture, 2 μM replenished at each media exchange): high
- outgrowth of cells (fold expansion, total viable cells) ([5]; tumor fragment-derived culture, 2 μM replenished at each media exchange, minimum 18 days): outgrowth of cells was superior

Compound: Urelumab: agonist CD137 receptor antibody
- 41BB expression on CD4+ T cells [2]: promoted
- 41BB expression on CD8+ T cells [2]: promoted

Compound: OKT3: human anti-CD3 monoclonal antibody
- T cell expansion ([6]; 50 ng/mL OKT3, 14 to 31 days, 300 or 6000 IU/mL IL-2): supported T cell expansion
- fold expansion ([6]; donor 6, all conditions, presence or absence of anti-CD3 stimulation): 2-4 fold
- fold expansion [6, 8]: largely similar; also recorded: did not substantially impact
- total cell number [6, 8]: largely similar; also recorded: did not substantially impact
- upregulation of activation markers (CD38, CD39, CD134, CD137, CD69, CD90) on CD8+ T cells ([7]; 48 hours following stimulation): all assessed markers were upregulated to some extent
- upregulation of activation markers (CD38, CD39, CD134, CD137, CD69, CD90) on CD4+ T cells ([7]; first 48 hours following stimulation): all assessed markers were upregulated to some extent

Compound: Varlilumab: agonist anti-CD27 antibody
- 41BB expression on CD3+ T cells [2]: promoted
- 41BB expression on CD4+ T cells [2]: promoted
- 41BB expression on CD8+ T cells [2]: promoted
- CD107a expression on CD3+ T cells [2]: promoted
- CD107a expression on CD4+ T cells [2]: promoted
- CD107a expression on CD8+ T cells [2]: promoted

Compound: IL-15: recombinant cytokine tested as T cell adjuvant
- dose response, cell number ([1]; 62.5 IU/ml-1000 IU/ml): cell number increased with increasing concentration
